≈ marks a conversion by molar mass, not a printed value.
conditions: buffer; pH 7.4; 200.0 µM

SMILES	solubility kinetic [µg/mL]
N#Cc1ccc(OCc2ccc(C(=O)O)o2)cc1	> 36.5
Cc1cc(=O)[nH]c(SCC(=O)NC2CCCc3ccccc32)n1 (stereo not drawn)	32.1 (≈ 97.4 µM)
Brc1ccccc1OCCCOc1cccc2cccnc12	1.5 (≈ 4.19 µM)
Cc1cc(C)c2oc(-c3cccc(N)c3)nc2c1	3 (≈ 12.6 µM)
CC(CC(=O)NCc1ccc(Cl)cc1)c1ccccc1 (stereo not drawn)	39 (≈ 136 µM)
Cc1nc(-c2ccc3c(c2)OCCCO3)cs1	29.1 (≈ 118 µM)
CN1CCN(c2ccc(NC(=O)c3ccc(Cl)cc3)cn2)CC1	> 49.6
CCCCCCCCCCCCN1C(=O)CSC1c1cccnc1 (stereo not drawn)	< 0.4
O=C(COc1ccc(Cl)cc1)NC1CC1	> 33.9
COc1ccc(CN2CCc3c([nH]c4ccccc34)C2)c(OC)c1C	35.2 (≈ 105 µM)
CC(C)c1nnc(NC(=O)C2CCCO2)s1 (stereo not drawn)	> 36.2
Cc1ccc(NS(=O)(=O)c2ccc3c(c2)n(C)c(=O)n3C)c(C)c1	17.9 (≈ 51.8 µM)
O=C(Nc1nc(-c2cccnc2)cs1)c1ccccc1[N+](=O)[O-]	0.7 (≈ 2.15 µM)
Cc1ccc(CC(=O)Nc2ncc([N+](=O)[O-])s2)cc1	6.5 (≈ 23.4 µM)
COC(=O)/C(C#N)=C/N(C)C	> 23.1
Cc1ccccc1NC(=O)N1CCc2ccccc2C1	> 40
CC(C)C1N(C(=O)N(C)C)CCN1S(=O)(=O)c1ccccc1 (stereo not drawn)	> 48.8
Clc1ccc(-c2cn3ccccc3n2)cc1	2.5 (≈ 10.9 µM)
COc1ccc(C2(c3ccc(OC)cc3)NC(=O)NC2=O)cc1	> 46.8
CC(=O)N1CCN(CC(C)(C)NS(=O)(=O)c2ccccc2)CC1	> 50.9
CN1C(=O)C(CCC(N)=O)NC1=S (stereo not drawn)	29.1 (≈ 145 µM)
COc1ccc(/C(C)=N/NC(=O)CNC(=O)c2cccnc2)cc1	> 49

SMILES	solubility kinetic [µg/mL]
CCn1ccnc1CN1CCN(CCC(C)C)C(CCO)C1 (stereo not drawn)	> 46.3
O=C(NCCCN1CCCC1=O)c1ccccc1OCc1ccc(Cl)cc1Cl	54.7 (≈ 130 µM)
C=CCOc1ccc(/C=C2\SC(=Nc3cccnc3)NC2=O)cc1	0.7 (≈ 2.07 µM)
CCCC(=O)c1c[nH]c(C(=O)N2CCOCC2)c1	> 37.5
O=C(c1cc2cc([N+](=O)[O-])ccc2s1)N1CCOCC1	16.2 (≈ 55.4 µM)
N#CC1=C(N)Oc2cc(N)ccc2C1c1cccc(Br)c1 (stereo not drawn)	3.5 (≈ 10.2 µM)
CCCCN(CC)Cc1c(O)ccc2c3c(c(=O)oc12)CCC3	44 (≈ 139 µM)
CC(=O)Nc1cc2c3c(c1)CCN3C(=O)CC2	> 34.5
O=C(NC1CCCCCC1)C(=O)NC1CC1	19.8 (≈ 88.3 µM)
COc1ccc(NC(=O)CCNC(=O)c2ccco2)cc1OC	47.3 (≈ 149 µM)
CCc1nnc(NC(=O)C2CCCO2)s1 (stereo not drawn)	> 34.1
O=C(NC1CCCc2ccccc21)c1ccc2c(c1)OCO2 (stereo not drawn)	11.6 (≈ 39.3 µM)
O=c1c2ccccc2ncn1-c1ccc(Cl)cc1Cl	33.8 (≈ 116 µM)
Cc1ccsc1C(=O)OCC(=O)N1CC(C)CC(C)C1 (stereo not drawn)	> 44.3
COc1ccc(C(=O)NCC(=O)N2CCCC(C)C2)cc1OC (stereo not drawn)	> 48.1
O=Cc1sc([O-])nc1-[n+]1ccc2ccccc2c1	5.1 (≈ 19.9 µM)
CC(=O)c1sc(=S)n(-c2ccccc2)c1C	9.4 (≈ 37.7 µM)
COc1ccc(OC)c(C(O)c2nc3ccccc3n2C)c1 (stereo not drawn)	> 44.8
CCOc1ccc(N2C(=O)CC(Cc3ccccc3OC)C2=O)cc1 (stereo not drawn)	4.9 (≈ 14.4 µM)
Cc1ccc(NC(=O)c2cc3ccccc3o2)cc1	1.5 (≈ 5.97 µM)
CCOc1ncccc1C(=O)Nc1cccc(S(=O)(=O)N2CCOCC2)c1	12 (≈ 30.7 µM)
COc1ccc2oc(=O)c(C(=O)Nc3cccc(C(C)=O)c3)cc2c1	< 0.7

SMILES	solubility kinetic [µg/mL]
O=C(COc1ccccc1Br)Nc1ccc2c(c1)OCCCO2	1.6 (≈ 4.23 µM)
CCc1nc(Nc2cccc(F)c2)c2oc3ccccc3c2n1.Cl	< 0.2
CC(=O)c1ccc(N2CCN(C(=O)c3ccc(S(=O)(=O)NCc4ccco4)cc3)CC2)cc1	4.9 (≈ 10.5 µM)
O=C(COC(=O)CCC1CCCC1)Nc1ccccc1OC(F)F	9.7 (≈ 28.4 µM)
CCOC(=O)c1c(CCl)nc2ccccc2c1C.Cl	30.4
Cc1cc(C2(O)C(=O)Nc3ccccc32)ccc1F (stereo not drawn)	> 38.6
O=C(CN1C(=O)NC2(CCOc3ccccc32)C1=O)N1CCCCC1 (stereo not drawn)	> 51.5
Cc1ccc(C(=O)Nc2ccccc2N2CCCC2)s1	> 43
COc1ccccc1C(=O)Nc1cc(-c2ccc(C)cc2)no1	0.5 (≈ 1.62 µM)
COc1ccc(CCNC(=O)c2cccs2)cc1OC	33.8 (≈ 116 µM)
Cc1cc(OCC(=O)Nc2ccc3oc(=O)ccc3c2)ccc1Cl	2.4 (≈ 6.98 µM)
CCC(OC(=O)c1ccco1)C(=O)NC1CCCC1 (stereo not drawn)	> 39.8
C#CC(CC)(CC)NC(=O)c1ccc(Br)s1	18.6 (≈ 62 µM)
COC(=O)C(NC(=O)CN1C(=O)c2ccccc2C1=O)c1ccc(O)c(OC)c1 (stereo not drawn)	55.8 (≈ 140 µM)
Cc1noc(C)c1COC(=O)/C=C/c1ccc(Cl)cc1	6.4 (≈ 21.9 µM)
C#CCn1cc(/C=C2\NC(=O)NC2=O)c2ccccc21	1.2 (≈ 4.52 µM)
O=C(Cc1cccs1)Nc1ccc(F)c(F)c1	20.9 (≈ 82.5 µM)
COc1ccc(OC)c(NC(=S)Nc2ccccc2)c1	> 43.3
Cc1ccc(C)c(NC(=O)C2CCN(C(=O)c3cccs3)CC2)c1	> 51.4
CC(C)(CNC(=O)Cc1ccc(Cl)cc1Cl)N1CCCCC1	> 51.5
Cn1c(=O)n(Cc2ccc(Br)cc2)c2ccccc21	25.7 (≈ 81 µM)
Cc1ccnc(NC2(C(F)(F)F)N=C3SCCN3C2=O)c1 (stereo not drawn)	> 47.4

SMILES	solubility kinetic [µg/mL]
CCC(=O)NC(=S)Nc1ccc(NC(=O)c2cccnc2)cc1	13.1 (≈ 39.9 µM)
O=C(COC(=O)Cn1ccc(=O)[nH]c1=O)Nc1ccc(F)cc1	> 48.2
CCN(C(=O)CSc1nccc(=O)[nH]1)C1CCCCC1	> 44.3
O=C1NC2(CCCCCC2)C(=O)N1Cc1ccc(Br)cc1	5.2 (≈ 14.8 µM)
N#Cc1c2n(c3c(N)ncnc13)CCCCC2	33.6 (≈ 148 µM)
Cc1ccc(C(=O)N2CCN(Cc3ccc4c(c3)OCO4)CC2)c(Cl)c1	54.4 (≈ 146 µM)
Cc1ccc(CCC(=O)Nc2ccc(CC(=O)O)cc2)o1	> 43.1
O=C(/C=C/c1ccc2c(c1)OCO2)N1CCCCC1	> 38.9
COc1ccc(NC(=O)N2CCCC(c3ccccc3)C2)cc1 (stereo not drawn)	27.8 (≈ 89.6 µM)
Cc1ccc(CCSc2ccc(F)cc2)cn1.O=C(O)C(=O)O	25.2
CC(C)NCC#CCOc1ccc(Cl)cc1.O=C(O)C(=O)O	42.6
COc1cccc(Oc2cc(Cl)nc(N)n2)c1	15 (≈ 59.6 µM)
Cc1[nH]c(=O)nc(SCc2ccc(Cl)c(Cl)c2)c1C#N	3.4 (≈ 10.4 µM)
Cc1noc(C)c1COc1ncnc2ccccc12	> 38.3
CC(NC(=O)CS(=O)(=O)c1ccccc1)c1ccccc1 (stereo not drawn)	> 45.5
Cc1[nH]nc(SCC(=O)N2CCCCCC2)c1[N+](=O)[O-]	> 44.8
COCCNc1ncnc2c1cnn2Cc1ccccc1Cl	> 47.7
COc1ccc(-c2nc3ncccc3n2O)cc1	> 36.2
CCc1ccc2nc(N(CCN(C)C)C(=O)/C=C/c3cccs3)sc2c1.Cl	< 0.3
O=S1(=O)CCN(Cc2cccc(C(F)(F)F)c2)CC1	41.9 (≈ 143 µM)
CCOc1ccccc1NC(=O)Nc1cc(S(=O)(=O)N(C)C)ccc1C	0.6 (≈ 1.59 µM)
COc1ccc(NC(=O)C2CC(=O)N=C(N)S2)cc1 (stereo not drawn)	> 41.9
